Results from PMC3445516 (PLoS ONE, 2012).
Read-outs that look alike come from different tables or passages of the source. Each block holds one compound with its values, some of them ahead of it.

Key:
Assay in all cases: Ambit kinase profiling, competition binding
STK16 = biological target: T1, STK16 (Homo sapiens, UniProt O75716)
T1 construct: purchased Ambit Biosciences (KINOMEscan)
Procedure: (§1) Also included in the kinase profile are four isoforms of PKC (δ, ε, η, θ) and eight isoforms of CAMKs (CAMKIα, δ, γ; CAMKIIα, β, δ, γ; CAMK4).
(§2) The global kinase profiling experiment was performed by Ambit Biosciences.

PAK4 = biological target: T2, PAK4 (Homo sapiens, UniProt O96013)
T2 construct: purchased Ambit Biosciences (KINOMEscan)
T2 sequence (O96013 whole entry): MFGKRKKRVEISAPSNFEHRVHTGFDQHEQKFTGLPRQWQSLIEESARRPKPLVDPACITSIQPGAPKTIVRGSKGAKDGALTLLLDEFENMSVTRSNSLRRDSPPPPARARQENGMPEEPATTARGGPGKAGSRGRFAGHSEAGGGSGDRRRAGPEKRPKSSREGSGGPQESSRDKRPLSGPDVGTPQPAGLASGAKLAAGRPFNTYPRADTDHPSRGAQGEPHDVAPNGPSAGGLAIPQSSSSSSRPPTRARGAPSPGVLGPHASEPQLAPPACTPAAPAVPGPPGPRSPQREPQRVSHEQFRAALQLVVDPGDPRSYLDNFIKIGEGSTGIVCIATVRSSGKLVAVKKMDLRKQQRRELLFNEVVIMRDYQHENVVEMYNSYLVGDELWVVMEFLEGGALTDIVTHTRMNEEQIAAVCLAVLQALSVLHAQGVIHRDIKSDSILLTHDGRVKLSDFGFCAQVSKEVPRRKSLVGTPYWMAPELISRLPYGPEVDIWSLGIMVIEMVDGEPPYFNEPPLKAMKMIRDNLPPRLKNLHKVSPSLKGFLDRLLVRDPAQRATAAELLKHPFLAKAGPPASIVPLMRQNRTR
Procedure: as §1, §2

TAOK1 = biological target: T3, TAOK1 (Homo sapiens, UniProt Q7L7X3)
T3 construct: purchased Ambit Biosciences (KINOMEscan)
T3 sequence (Q7L7X3 1-1001): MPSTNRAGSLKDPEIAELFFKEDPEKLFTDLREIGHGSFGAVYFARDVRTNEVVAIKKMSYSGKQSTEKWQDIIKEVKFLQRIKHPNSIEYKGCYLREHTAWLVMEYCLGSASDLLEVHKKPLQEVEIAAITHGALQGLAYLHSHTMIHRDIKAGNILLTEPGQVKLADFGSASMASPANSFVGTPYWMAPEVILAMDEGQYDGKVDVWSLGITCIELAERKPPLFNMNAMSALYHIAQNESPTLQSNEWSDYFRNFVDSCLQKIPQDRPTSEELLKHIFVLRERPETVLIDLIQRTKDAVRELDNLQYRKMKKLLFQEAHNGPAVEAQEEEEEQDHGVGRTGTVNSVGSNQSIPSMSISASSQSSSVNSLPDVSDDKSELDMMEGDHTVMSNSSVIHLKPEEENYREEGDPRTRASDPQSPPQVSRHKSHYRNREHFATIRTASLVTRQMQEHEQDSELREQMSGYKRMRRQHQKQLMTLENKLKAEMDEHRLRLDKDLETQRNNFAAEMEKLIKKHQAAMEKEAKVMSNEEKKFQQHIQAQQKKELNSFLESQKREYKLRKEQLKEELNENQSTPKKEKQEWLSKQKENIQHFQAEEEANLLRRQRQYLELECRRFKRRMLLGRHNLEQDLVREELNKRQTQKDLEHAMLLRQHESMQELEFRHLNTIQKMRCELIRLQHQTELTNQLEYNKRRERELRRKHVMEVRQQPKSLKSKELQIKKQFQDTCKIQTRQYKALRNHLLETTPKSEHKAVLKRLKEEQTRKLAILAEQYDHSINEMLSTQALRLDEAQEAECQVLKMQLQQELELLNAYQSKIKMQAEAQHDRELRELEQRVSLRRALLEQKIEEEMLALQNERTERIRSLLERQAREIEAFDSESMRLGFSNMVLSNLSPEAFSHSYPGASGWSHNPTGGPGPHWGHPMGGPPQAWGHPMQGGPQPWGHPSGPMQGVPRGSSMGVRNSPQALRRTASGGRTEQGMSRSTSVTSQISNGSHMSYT
Procedure: as §1, §2

CDK5 = biological target: T4, CDK5 (Homo sapiens, UniProt Q00535)
T4 construct: purchased Ambit Biosciences (KINOMEscan)
T4 sequence (Q00535 whole entry): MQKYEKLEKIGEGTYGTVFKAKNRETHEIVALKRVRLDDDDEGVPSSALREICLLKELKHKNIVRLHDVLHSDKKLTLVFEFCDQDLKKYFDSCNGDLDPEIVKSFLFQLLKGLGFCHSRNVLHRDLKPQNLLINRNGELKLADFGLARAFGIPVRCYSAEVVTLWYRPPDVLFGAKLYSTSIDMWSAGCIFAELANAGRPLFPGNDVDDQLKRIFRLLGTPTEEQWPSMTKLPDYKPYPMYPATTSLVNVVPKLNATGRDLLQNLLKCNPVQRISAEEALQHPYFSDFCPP
Procedure: as §1, §2

p38-delta = biological target: T5, p38-delta (Homo sapiens, UniProt O15264)
T5 construct: purchased Ambit Biosciences (KINOMEscan)
T5 sequence (O15264 1-365): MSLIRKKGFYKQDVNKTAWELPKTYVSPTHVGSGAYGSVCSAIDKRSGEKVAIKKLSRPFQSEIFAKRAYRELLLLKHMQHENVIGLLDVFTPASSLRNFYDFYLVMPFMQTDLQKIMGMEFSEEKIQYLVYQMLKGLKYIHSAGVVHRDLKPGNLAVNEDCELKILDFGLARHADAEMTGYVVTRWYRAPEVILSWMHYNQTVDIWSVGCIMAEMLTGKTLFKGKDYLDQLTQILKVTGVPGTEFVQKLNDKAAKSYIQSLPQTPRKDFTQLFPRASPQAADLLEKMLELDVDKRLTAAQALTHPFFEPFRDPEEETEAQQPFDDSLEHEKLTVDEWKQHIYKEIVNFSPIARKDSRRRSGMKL
Procedure: as §1, §2

CSNK1G1 = biological target: T6, CSNK1G1 (Homo sapiens, UniProt Q9HCP0); details: for % Competition: 10 µM
T6 construct: purchased Ambit Biosciences (KINOMEscan)
T6 sequence (Q9HCP0 whole entry): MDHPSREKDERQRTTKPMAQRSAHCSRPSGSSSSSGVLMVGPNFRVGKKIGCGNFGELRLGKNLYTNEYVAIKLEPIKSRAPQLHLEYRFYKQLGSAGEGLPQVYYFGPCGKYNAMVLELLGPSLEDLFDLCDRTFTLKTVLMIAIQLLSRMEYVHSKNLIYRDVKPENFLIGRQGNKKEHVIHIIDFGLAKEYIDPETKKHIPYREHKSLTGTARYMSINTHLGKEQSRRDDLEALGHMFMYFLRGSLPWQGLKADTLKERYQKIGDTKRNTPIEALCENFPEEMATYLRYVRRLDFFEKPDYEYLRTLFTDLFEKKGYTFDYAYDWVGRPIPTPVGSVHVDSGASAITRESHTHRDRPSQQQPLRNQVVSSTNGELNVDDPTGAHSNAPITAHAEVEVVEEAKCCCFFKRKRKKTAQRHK
Procedure: as §1, §2

MARK2 = biological target: T7, MARK2 (Homo sapiens, UniProt Q7KZI7)
T7 construct: purchased Ambit Biosciences (KINOMEscan)
T7 sequence (Q7KZI7 whole entry): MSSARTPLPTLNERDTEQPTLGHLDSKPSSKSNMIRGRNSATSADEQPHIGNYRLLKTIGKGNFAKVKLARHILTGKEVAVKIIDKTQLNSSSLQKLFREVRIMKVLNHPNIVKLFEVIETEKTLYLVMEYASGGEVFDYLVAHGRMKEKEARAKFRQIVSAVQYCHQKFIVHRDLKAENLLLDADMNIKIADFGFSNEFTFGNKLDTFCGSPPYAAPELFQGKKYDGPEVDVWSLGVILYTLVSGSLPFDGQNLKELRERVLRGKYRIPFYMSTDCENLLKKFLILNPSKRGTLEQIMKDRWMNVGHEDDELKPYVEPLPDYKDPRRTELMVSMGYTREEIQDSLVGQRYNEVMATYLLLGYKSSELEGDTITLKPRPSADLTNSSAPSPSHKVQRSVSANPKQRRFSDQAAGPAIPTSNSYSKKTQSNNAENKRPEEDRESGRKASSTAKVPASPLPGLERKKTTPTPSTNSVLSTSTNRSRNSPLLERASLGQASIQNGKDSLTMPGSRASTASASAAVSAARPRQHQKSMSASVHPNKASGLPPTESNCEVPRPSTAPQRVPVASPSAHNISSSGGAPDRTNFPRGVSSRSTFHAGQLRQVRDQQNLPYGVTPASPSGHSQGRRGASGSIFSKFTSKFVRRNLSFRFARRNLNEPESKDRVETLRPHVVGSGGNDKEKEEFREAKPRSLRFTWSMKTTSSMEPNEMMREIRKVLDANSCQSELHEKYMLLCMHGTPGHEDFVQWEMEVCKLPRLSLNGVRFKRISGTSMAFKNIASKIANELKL
Procedure: as §1, §2

PCTK2 = biological target: T8, PCTK2 (Homo sapiens, UniProt Q00537)
T8 construct: purchased Ambit Biosciences (KINOMEscan)
T8 sequence (Q00537 whole entry): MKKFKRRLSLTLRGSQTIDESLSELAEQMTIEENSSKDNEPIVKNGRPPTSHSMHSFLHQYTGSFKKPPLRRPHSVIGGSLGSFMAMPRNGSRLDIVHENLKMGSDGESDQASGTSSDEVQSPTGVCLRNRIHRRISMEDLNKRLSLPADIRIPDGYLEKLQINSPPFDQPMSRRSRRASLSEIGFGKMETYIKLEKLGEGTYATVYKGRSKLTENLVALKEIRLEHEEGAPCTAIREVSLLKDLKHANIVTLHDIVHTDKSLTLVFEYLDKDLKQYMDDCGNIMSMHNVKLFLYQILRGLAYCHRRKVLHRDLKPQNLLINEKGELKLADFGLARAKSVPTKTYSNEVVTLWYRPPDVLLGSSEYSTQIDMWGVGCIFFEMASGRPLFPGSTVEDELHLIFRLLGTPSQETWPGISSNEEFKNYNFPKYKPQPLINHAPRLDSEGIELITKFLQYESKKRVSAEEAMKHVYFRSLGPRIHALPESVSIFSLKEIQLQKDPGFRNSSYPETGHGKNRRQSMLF
Procedure: as §1, §2

TGFBR1 = biological target: T9, TGFBR1 (Homo sapiens, UniProt P36897)
T9 construct: purchased Ambit Biosciences (KINOMEscan)
T9 sequence (P36897 34-503): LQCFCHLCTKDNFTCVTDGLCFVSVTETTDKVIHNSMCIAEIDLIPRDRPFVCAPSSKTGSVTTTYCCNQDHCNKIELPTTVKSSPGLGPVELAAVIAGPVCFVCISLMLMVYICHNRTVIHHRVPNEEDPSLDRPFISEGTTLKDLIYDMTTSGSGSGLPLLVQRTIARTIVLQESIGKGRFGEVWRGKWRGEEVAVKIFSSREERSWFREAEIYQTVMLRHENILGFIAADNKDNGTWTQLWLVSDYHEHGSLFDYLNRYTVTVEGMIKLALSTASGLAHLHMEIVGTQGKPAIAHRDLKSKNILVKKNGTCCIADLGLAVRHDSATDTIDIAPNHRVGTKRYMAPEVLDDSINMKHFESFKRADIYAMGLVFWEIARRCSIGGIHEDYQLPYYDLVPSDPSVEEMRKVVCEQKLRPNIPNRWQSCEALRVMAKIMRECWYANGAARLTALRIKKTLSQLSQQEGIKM
Procedure: as §1, §2

T1 sequence (O75716 whole entry): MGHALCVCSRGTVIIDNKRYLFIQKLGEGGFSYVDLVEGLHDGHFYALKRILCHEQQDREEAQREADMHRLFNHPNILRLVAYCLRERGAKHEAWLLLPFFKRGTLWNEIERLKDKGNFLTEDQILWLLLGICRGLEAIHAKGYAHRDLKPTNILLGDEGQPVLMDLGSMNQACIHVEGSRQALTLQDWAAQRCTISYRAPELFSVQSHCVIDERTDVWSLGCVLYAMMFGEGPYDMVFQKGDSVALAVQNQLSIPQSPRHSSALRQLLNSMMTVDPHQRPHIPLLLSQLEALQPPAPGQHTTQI

- inhibition at 10 µM (STK16; STK16, compound concentration 10 uM, read-out: Percent Competition): 96%
- inhibition at 10 µM (PAK4; PAK4, compound concentration 10 uM, read-out: Percent Competition): 82%
- inhibition at 10 µM (TAOK1; TAOK1, compound concentration 10 uM, read-out: Percent Competition): 99%
- inhibition at 10 µM (CDK5; CDK5, compound concentration 10 uM, read-out: Percent Competition): 92%
- inhibition at 10 µM (p38-delta; compound concentration 10 uM, read-out: Percent Competition): 82%
- Percent Competition (CSNK1G1; compound concentration 10 uM): 78%
- inhibition at 10 µM (MARK2; MARK2, compound concentration 10 uM, read-out: Percent Competition): 77%
- inhibition at 10 µM (PCTK2; PCTK2, compound concentration 10 uM, read-out: Percent Competition): 78%
- inhibition at 10 µM (TGFBR1; TGFBR1, compound concentration 10 uM, read-out: Percent Competition): 91%
Compound: Fc1ccc(-c2c(-c3ccncc3)[nH]c3nccnc23)cc1 [RO1155697-000-005]

- inhibition at 10 µM (STK16; STK16, 10 µM, read-out: % Competition): 96%
- inhibition at 10 µM (PAK4; PAK4, 10 µM, read-out: % Competition): 82%
- inhibition at 10 µM (TAOK1; TAOK1, 10 µM, read-out: % Competition): 99%
- inhibition at 10 µM (CDK5; CDK5, 10 µM, read-out: % Competition): 92%
- inhibition at 10 µM (p38-delta; 10 µM, read-out: % Competition): 82%
- % Competition (CSNK1G1): 78%
- inhibition at 10 µM (MARK2; MARK2, 10 µM, read-out: % Competition): 77%
- inhibition at 10 µM (PCTK2; PCTK2, 10 µM, read-out: % Competition): 78%
- inhibition at 10 µM (TGFBR1; TGFBR1, 10 µM, read-out: % Competition): 91%
Compound: Fc1ccc(-c2c(-c3ccncc3)[nH]c3nccnc23)cc1 [Compound 122]

Compound: CC(O)CNc1cc(-c2[nH]c3cccnc3c2-c2ccc(F)cc2)ccn1 (stereo not drawn) [Compound 140]
- inhibition at 10 µM (STK16; read-out: % Competition): < 50%
- inhibition at 10 µM (PAK4; read-out: % Competition): < 50%
- inhibition at 10 µM (TAOK1; read-out: % Competition): 67%
- inhibition at 10 µM (CDK5; read-out: % Competition): < 50%
- % Competition (p38-delta; 10 µM): <50%
- % Competition (CSNK1G1): 94%
- inhibition at 10 µM (MARK2; read-out: % Competition): < 50%
- inhibition at 10 µM (PCTK2; read-out: % Competition): < 50%
- inhibition at 10 µM (TGFBR1; read-out: % Competition): < 50%
